Test results reported in PMC8391421, “Identification of Novel Positive Allosteric Modulators of Neurotrophin Receptors for the Treatment of Cognitive Dysfunction” (Cells, 2021).
Each block holds one molecule with its values, some of them ahead of it.

Key:
TrkB = target: T1, TrkB (Homo sapiens, UniProt Q16620); experiment: TrkB PathHunter cell-based assay (U2OS-TrkB/p75)
T1 construct: host or cells: U2OS (human osteosarcoma), co-expressing p75 and SHC-1 fused to the enzyme acceptor
Method: U2OS cells were maintained subconfluent in EMEM supplemented with 10% FBS and penicillin/streptomycin/hygromycin and G418. One day prior to the experiment, 5000 cells of EMEM supplemented with 0.5% horse serum were seeded in each well of a 384-well white plate. The assay was performed as previously described. Briefly, the TrkA or TrkB cell-based PathHunter® assays use enzyme fragment complementation (EFC) technology for the complementation of two β-galactosidase (β-gal) fragments in order to study protein–protein interactions. Upon activation with ligand, TrkA or TrkB are phosphorylated on several tyrosine residues, including tyrosine 490, leading to an interaction with SHC-1. In the PathHunter® assays, the Trk-receptors are fused to an enzyme donor tag, and SHC-1 is fused to a larger part of β-gal called an enzyme acceptor. The interactions between the recombinant enzyme donor, i.e., the Trk-receptor, with an enzyme acceptor, i.e., SHC-1, leads to an active β-gal enzyme. The functional (complemented) β-gal will hydrolyze a substrate to generate a luminescence signal. The generated luminescence was read using an EnVision plate reader from PerkinElmer, Upplands Väsby, Sweden, or an ID5 plate reader from Molecular Devices, Berkshire, RG41 5TS UK. […] Min- and Max-control wells were included on each plate. A compound was considered a hit if the percent activation was more than 50% and if the value was two standard deviations higher than the mean value of all of the samples on the plate. The average activation of all of samples on 10 different 384-well plates was 31%. […] Due to the risk of adverse events with the systemic administration of TrkA agonists, the screen and the re-screen processes were designed to increase the likelihood of identifying the positive modulators of NGF-signaling rather than identifying TrkA agonists. Based on the results of the re-screen, in combination with the physical–chemical properties of the molecules, a collection of hits was used for the EC50 determinations.
Both Toltrazuril and Ponazuril are registered veterinary products prescribed for parasitic infections in animals. […] The cellular response to NGF or BDNF was measured using PathHunter® assays employing β-gal enzyme fragment complementation technology. The activation of Trk-receptors leads to an intracellular interaction between the Trk-receptor and SHC-1 and thereby to the complementation of β-gal, which will render in a functional enzyme. β-gal will hydrolyze a substrate to generate luminescence, which is proportional to the number of activated receptors. […]

TrkA = target: T2, TrkA (Homo sapiens, UniProt P04629); experiment: TrkA PathHunter cell-based assay (U2OS-TrkA/p75)
T2 construct: host or cells: U2OS (human osteosarcoma), co-expressing p75 and SHC-1 fused to the enzyme acceptor
Method: U2OS cells were maintained subconfluent in EMEM supplemented with 10% FBS and penicillin/streptomycin/hygromycin and G418. One day prior to the experiment, 5000 cells of EMEM supplemented with 0.5% horse serum were seeded in each well of a 384-well white plate. The assay was performed as previously described. Briefly, the TrkA or TrkB cell-based PathHunter® assays use enzyme fragment complementation (EFC) technology for the complementation of two β-galactosidase (β-gal) fragments in order to study protein–protein interactions. Upon activation with ligand, TrkA or TrkB are phosphorylated on several tyrosine residues, including tyrosine 490, leading to an interaction with SHC-1. In the PathHunter® assays, the Trk-receptors are fused to an enzyme donor tag, and SHC-1 is fused to a larger part of β-gal called an enzyme acceptor. The interactions between the recombinant enzyme donor, i.e., the Trk-receptor, with an enzyme acceptor, i.e., SHC-1, leads to an active β-gal enzyme. The functional (complemented) β-gal will hydrolyze a substrate to generate a luminescence signal. The generated luminescence was read using an EnVision plate reader from PerkinElmer, Upplands Väsby, Sweden, or an ID5 plate reader from Molecular Devices, Berkshire, RG41 5TS UK. […] Min- and Max-control wells were included on each plate.
Both Toltrazuril and Ponazuril are registered veterinary products prescribed for parasitic infections in animals. […] The activation of Trk-receptors leads to an intracellular interaction between the Trk-receptor and SHC-1 and thereby to the complementation of β-gal, which will render in a functional enzyme. β-gal will hydrolyze a substrate to generate luminescence, which is proportional to the number of activated receptors.

Wistar rats = experiment: Novel object recognition; format: in vivo, rat; conditions: 1 mg/kg
Method: The novel object recognition model was conducted by Suven Life Sciences Ltd. (Hyderabad, India) using male Wistar rats (n = 12/group). This study was performed in compliance with the requirements and in-house animal care and usage policy of the Institutional Animal Ethics Committee (IAEC). The experiment was conducted over a 5-day period. For the first 3 days, ACD855 or vehicle were administered to the animals. On Day 4, the rats were acclimatized to their respective arenas for 20 min and then returned to their home cages for the administration of ACD855 or vehicle (1 h post habituation phase). On Day 5, the rats were administered vehicle or ACD855 1 h prior to trial, donepezil (1 mg/kg) was injected 30 min prior to trial, and scopolamine (1 mg/kg) was injected 20 min prior to trial. 20 min after scopolamine administration, the rats were subjected to the familiarization phase. The experiment was performed as described by Lueptow. The discriminative index for the drug-treated groups was compared to that of the vehicle group by use of the Kruskal–Wallis test. The discriminative index is the ratio of time spent exploring the novel object divided by the sum of the time spent exploring the novel object and a familiar object in the choice trial.

C57BL/6J mice = experiment: Passive avoidance task; format: in vivo, mouse; conditions: low doses given by themselves; physostigmine 0.025 mg/kg
Method: The passive avoidance (PA) task is an associate learning paradigm that is based on Pavlovian fear-conditioning and instrumental conditioning and conducted as previously described in male C57BL/6J mice (n = 7–8/group) from Charles River Laboratories, Sulzfeld, Germany. Vehicle or ACD855 (1, 3 or 10 mg/kg), formulated in 20% DMSO in 0.1 M sodium phosphate buffer pH 8.0, was administered daily (Days 1–4) through s.c. injections (4 mL/kg body weight). ACD856 (0.1, 0.3, 1 or 3 mg/kg) was administered by a single s.c. dose on the training day (Day 4). ACD855, ACD856, ANA-12 (0.5 mg/kg, from Sigma Aldrich, Stockholm, Sweden), physostigmine (0.025 mg/kg, from Sigma Aldrich, Stockholm, Sweden), or vehicle was administered 60 min prior to training, except for when addressing the effects on consolidation, in which case, ACD856 was dosed 5 min after the training session on day 4. Moreover, on the training day (Day 4), scopolamine or the NMDA-antagonist MK-801 (both from Sigma Aldrich, Stockholm, Sweden) at 0.3 mg/kg or vehicle was administered once s.c. 30 min prior to training. No compound was administered on the test day (Day 5), except for when addressing effects on retrieval, in which case, ACD856 was dosed 30 min prior to testing on day 5. Retention latencies and time spent in the bright compartment were determined 24 h after training (Day 5).

[1] = tested on: Shaffer collaterals-CA1 pathway, hippocampal slices; experiment: Facilitation of long-term potentiation in rat hippocampal slices; conditions: 50 ng/mL; n = 9 slices from 7 rats
Method: Male Sprague Dawley rats (4–5 weeks old) from Charles River Laboratories, Sulzfeld, Germany, were used in these experiments. Rats were deeply anesthetized using isoflurane and decapitated soon after the disappearance of the corneal reflexes. The brains were removed and placed in ice-cold standard artificial CSF (aCSF) solution (124 mM NaCl, 30 mM NaHCO3, 10 mM glucose, 1.25 mM NaH2PO4, 3.5 mM KCl, 1 mM MgCl2, 2 mM CaCl2). Hippocampal horizontal sections (400 µm thick) were prepared using a Leica VT1200S vibratome (Leica Microsystems, Kista, Sweden). Immediately after slicing, sections were transferred into an interface incubation chamber filled with standard aCSF. The chamber was held at 34 °C during the slicing period and was subsequently allowed to cool down to room temperature. […] The facilitation of long-term potentiation (LTP) was monitored in the Shaffer collaterals (SC)-CA1 pathway in the hippocampus. […] Data were normalized with respect to the mean fEPSP slope recorded during the last 10 min of the baseline period.
It has been well-described that the transient, short-term plasticity of synaptic strength induced by a weak stimulation in hippocampal slices can turn into long-term potentiation (LTP) through the exogenous application of BDNF [71, 72, 73]. […] In the control slices, the recorded potentiation decreased to the baseline level after 60 min. […]

T1 sequence (Q16620 32-822): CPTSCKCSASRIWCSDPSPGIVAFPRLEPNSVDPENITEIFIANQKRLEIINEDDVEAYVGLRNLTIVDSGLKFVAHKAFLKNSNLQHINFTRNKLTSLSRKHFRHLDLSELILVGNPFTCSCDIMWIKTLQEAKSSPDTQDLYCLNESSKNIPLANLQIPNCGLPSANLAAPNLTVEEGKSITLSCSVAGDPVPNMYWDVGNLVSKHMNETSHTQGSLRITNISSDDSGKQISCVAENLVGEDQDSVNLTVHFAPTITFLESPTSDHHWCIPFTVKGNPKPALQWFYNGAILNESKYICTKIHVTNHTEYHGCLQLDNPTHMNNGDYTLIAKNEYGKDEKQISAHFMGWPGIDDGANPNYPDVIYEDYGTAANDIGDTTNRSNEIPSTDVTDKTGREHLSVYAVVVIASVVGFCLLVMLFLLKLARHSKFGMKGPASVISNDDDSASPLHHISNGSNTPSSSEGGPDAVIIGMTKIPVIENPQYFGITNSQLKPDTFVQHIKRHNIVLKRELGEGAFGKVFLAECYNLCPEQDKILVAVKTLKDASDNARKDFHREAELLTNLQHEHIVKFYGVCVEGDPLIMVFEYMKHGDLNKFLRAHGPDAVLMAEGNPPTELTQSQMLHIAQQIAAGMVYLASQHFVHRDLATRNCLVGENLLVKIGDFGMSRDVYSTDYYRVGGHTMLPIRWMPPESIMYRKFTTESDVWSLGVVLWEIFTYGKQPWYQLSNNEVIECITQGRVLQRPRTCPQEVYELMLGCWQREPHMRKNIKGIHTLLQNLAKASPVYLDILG
T2 sequence (P04629 33-796): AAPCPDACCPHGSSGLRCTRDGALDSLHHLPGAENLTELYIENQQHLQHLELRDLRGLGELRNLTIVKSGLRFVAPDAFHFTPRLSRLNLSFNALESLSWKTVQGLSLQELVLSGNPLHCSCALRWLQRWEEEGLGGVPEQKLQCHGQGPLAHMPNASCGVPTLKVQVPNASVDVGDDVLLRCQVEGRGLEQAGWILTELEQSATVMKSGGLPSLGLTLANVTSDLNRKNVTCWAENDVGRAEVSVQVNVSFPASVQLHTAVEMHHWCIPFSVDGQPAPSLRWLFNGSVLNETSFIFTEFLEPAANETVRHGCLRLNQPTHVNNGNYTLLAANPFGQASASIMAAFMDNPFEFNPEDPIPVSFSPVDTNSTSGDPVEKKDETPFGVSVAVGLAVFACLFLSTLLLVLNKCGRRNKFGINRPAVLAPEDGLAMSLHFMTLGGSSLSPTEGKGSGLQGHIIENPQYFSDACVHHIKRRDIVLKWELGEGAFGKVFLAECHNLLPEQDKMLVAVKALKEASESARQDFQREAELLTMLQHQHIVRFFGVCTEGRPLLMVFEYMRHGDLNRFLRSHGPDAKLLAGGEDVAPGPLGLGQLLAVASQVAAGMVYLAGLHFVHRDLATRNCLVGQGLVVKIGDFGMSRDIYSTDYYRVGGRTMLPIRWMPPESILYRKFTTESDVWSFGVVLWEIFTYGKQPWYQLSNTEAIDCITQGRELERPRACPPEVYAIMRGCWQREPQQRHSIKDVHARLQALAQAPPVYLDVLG

activity in the TrkB assay (TrkB): not active | activity in the TrkA assay (TrkA): not active
Molecule: N#CC(c1ccc(Cl)cc1)c1c(Cl)cc(-n2ncc(=O)[nH]c2=O)cc1Cl (centres unmarked) [Diclazuril]

Molecule: COc1cc2c(cc1OC)C(=O)C(CC1CCN(Cc3ccccc3)CC1)C2 (centres unmarked) [Donepezil]
time with novel object vs familiar object after scopolamine (Wistar rats): spent significantly more time with the novel object

Molecule: CNC(=O)Oc1ccc2c(c1)[C@]1(C)CCN(C)[C@@H]1N2C [physostigmine]
effect of low dose alone on scopolamine-induced memory impairment (C57BL/6J mice): no significant effect

B1: BDNF: recombinant human brain-derived neurotrophic factor (protein, UniProt P23560 19-247, looked up)
Neurotrophic factor BDNF …: APMKEANIRGQGGLAYPGVRTHGTLESVNGPKAGSRGLTSLADTFEHVIEELLDEDQKVRPNEENNKDADLYTSRVMLSSQVPLEPPLLFLLEEYKNYLDAANMSMRVRRHSDPARRGELSVCDSISEWVTAADKKTAVDMSGGTVTVLEKVPVSKGQLKQYFYETKCNPMGYTKEGCRGIDKRHWNSQCRTTQSYVRALTMDSKKRIGWRFIRIDTSCVCTLTIKRGR
long-lasting potentiation of evoked synaptic responses (fEPSP slope), fold increase [1]: 1.22 ± 0.04 fold
